From patent US5352680A, “Delta opioid receptor antagonists to block opioid agonist tolerance and dependence” (priority 1992, dated 1994)
Where two headings read alike, the source gives them in different places.

Tests used:
[1] = system: kappa opioid receptor; experiment: Antagonism of kappa opioid receptor agonists; type: in vivo; conditions: 10 nmol/mouse i.c.v., 24 hours
[2] = system: mu opioid receptor; experiment: Antagonism of mu opioid receptor agonists; type: in vivo; conditions: 10 nmol/mouse i.c.v., 24 hours
Description: (§1) NTI (10 pmol/mouse) was administered 100 min before the i.c.v. injection of DAMGO and 20 min later, at the peak effect of DAMGO, the antinociceptive activity of the peptide was assessed. In another group of mice, NTI (10 pmol/mouse) was administered twice, once at 100 min before and again at the same time as the i.c.v. injection of DAMGO. 5'-NTII (10 nmol/mouse) was administered 24 hr before being tested with DAMGO.

[3] = system: development of morphine tolerance in mice treated chronically with morphine; type: in vivo, mice (male Swiss-Webster); conditions: for increase of the ED50 of morphine sulfate vs control animals: antagonist together with morphine pellets; for effect on development of tolerance: with morphine pellets
Description: (§2) Male Swiss-Webster mice (BioLab, White Bear Lake, Minn.) weighing 20 to 25 g were used. The mice were rendered tolerant to and dependent on morphine by s.c. implantation of one morphine pellet (75 mg free base)/mouse for 3 days according to the procedure of E. L. Way et al., J. Pharmacol. Exp. Ther., 167, 1 (1969). Control animals were implanted with placebo pellets. Mice were anesthetized lightly with methoxyflurane during the implantation process. […] Chem. Pathol. Pharmacol., 16, 721 (1977).
At least 30 mice (10/group) and three to four dose levels were used to determine each ED50 value.
The ED50 values of morphine and their 95% CL were determined by the parallel line assay of D. J. Finney, Statistical Methods in Biological Assay, Hafner Pub. Co., N.Y. (2d ed. 1969) with the aid of a computer program which has the capability to analyze at the same time 12 lines (dose-response curves) and 6 points (dose levels) per line with log and probit transformations and 35 repetitions per point.
(§3) Mice were implanted with a single placebo (control) or morphine pellet (75 mg free base) for 3 days. NTI (10 pmol/mouse) was administered i.c.v. 90 min before and 24 and 48 hr after the morphine pellet implantation. 5'-NTII (10 nmol/mouse) was administered 24 hr before, at the same time as and 24 and 48 hr after the morphine pellet implantation.

[4] = system: development of physical dependence in mice treated chronically with morphine; experiment: Naloxone-induced withdrawal jumping: physical dependence, mice treated chronically with morphine; type: in vivo, mice (male Swiss-Webster); conditions: with morphine pellet
Description: as §2, §3

[5] = biological target: T1, delta opioid receptors (Mus musculus, UniProt P32300); conditions: previously reported; cited from earlier work
T1 construct: from tissue; host or cells: living mouse, intracerebroventricular dosing (endogenous receptor)

[6] = system: delta opioid receptors; conditions: shown previously; cited from earlier work
[7] = system: kappa opioid receptor; conditions: shown previously; cited from earlier work
[8] = system: mu opioid receptor; conditions: shown previously; cited from earlier work
[9] = biological target: T1, delta opioid receptors; experiment: Antagonism of delta opioid receptor agonists (DSLET) in vivo; parameters: species or system mice
[10] = system: mu opioid receptors; experiment: Effect on antinociceptive activity of the mu agonist DAMGO; type: in vivo, mice (male Swiss-Webster); conditions: NTI 10 pmol/mouse, once or twice; 5'-NTII 10 nmol/mouse 24 hr before DAMGO
Description: as §1

[11] = system: antinociceptive activity; experiment: Antinociceptive activity of the antagonist itself; type: in vivo, mice; conditions: for antinociceptive activity: mouse, in vivo
[12] = system: development of morphine tolerance in mice treated acutely with morphine; type: in vivo, mice (male Swiss-Webster); conditions: NTI 10 pmol/mouse i.c.v.; morphine sulfate 100 mg/kg s.c.
[13] = system: delta opioid receptor; experiment: Delta antagonist potency/selectivity comparison (one assay)
[14] = system: development of physical dependence in mice treated acutely with morphine; type: in vivo, mice (male Swiss-Webster)
[15] = system: mu opioid receptor; conditions: monkeys; cited from earlier work
[16] = system: mu opioid receptor; conditions: dose used by DeLander et al.; cited from earlier work
[17] = system: mu opioid receptor; conditions: rats; cited from earlier work

T1 sequence (P32300 whole entry): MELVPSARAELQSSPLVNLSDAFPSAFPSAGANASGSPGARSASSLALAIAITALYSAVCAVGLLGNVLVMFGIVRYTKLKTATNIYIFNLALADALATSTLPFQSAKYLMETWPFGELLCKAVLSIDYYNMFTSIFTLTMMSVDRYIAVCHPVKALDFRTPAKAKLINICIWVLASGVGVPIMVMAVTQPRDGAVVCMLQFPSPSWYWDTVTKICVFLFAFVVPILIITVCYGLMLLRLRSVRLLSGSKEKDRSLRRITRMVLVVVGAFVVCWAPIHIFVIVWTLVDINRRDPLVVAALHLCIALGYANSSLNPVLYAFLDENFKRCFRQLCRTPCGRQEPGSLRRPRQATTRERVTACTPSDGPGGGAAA

Oc1ccc2c3c1O[C@H]1c4[nH]c5ccc(N=C=S)cc5c4C[C@@]4(O)[C@@H](C2)N(CC2CC2)CC[C@]314 [5'-NTII, naltrindole 5'-isothiocyanate]
effect on ED50s of kappa opioid receptor agonists [1]: without affecting the ED50 s of mu or kappa opioid receptor agonists
effect on ED50s of mu opioid receptor agonists [2]: without affecting the ED50 s of mu or kappa opioid receptor agonists
increase of the ED50 of morphine sulfate vs control animals [3]: 3 fold
effect on development of tolerance [3]: the development of tolerance was suppressed substantially
effect on development of physical dependence [4]: appeared to block it completely
duration of action against delta agonists [5]: more than 48 hr
antagonism of delta opioid receptor agonists [6]: highly effective antagonists against the activity of delta opioid receptor agonists
effect on activity of kappa opioid receptor agonists [7]: minimal or no effect
effect on activity of mu opioid receptor agonists [8]: minimal or no effect
selectivity for delta opioid receptors ([9]; 10 nmol/mouse i.c.v.): high selectivity for delta opioid receptors
increase of ED50 of DSLET ([9]; 24 hours after 10 nmol/mouse i.c.v.): 50 fold
effect on the antinociceptive activity of DAMGO [10]: neither NTI nor 5'-NTII, at the dosages and injection protocol used, altered the anti-nociceptive activity of DAMGO
antinociceptive activity [11]: without any antinociceptive activity

Oc1ccc2c3c1O[C@H]1c4[nH]c5ccccc5c4C[C@@]4(O)[C@@H](C2)N(CC2CC2)CC[C@]314 [NTI, 17-(cyclopropylmethyl)-6,7-dehydro-3,14β-dihydroxy-4,5α-epoxy-6,7-2',3'-indolmorphinan]
increase of the ED50 of morphine sulfate vs control animals [3]: 2 fold
effect on development of tolerance [3]: the development of tolerance was suppressed substantially
effect on development of physical dependence [4]: suppressed the development of dependence substantially
effect on development of acute tolerance [12]: completely prevented the development of acute tolerance
potency relative to ICI 174864 ([13]; vs peptide delta antagonist ICI 174864): at least 500 times
selectivity relative to M8008 ([13]; vs structurally unrelated opiate M8008): more selective than the structurally unrelated opiate M8008
antagonism of delta opioid receptor agonists [6]: highly effective antagonists against the activity of delta opioid receptor agonists
effect on activity of kappa opioid receptor agonists [7]: minimal or no effect
effect on activity of mu opioid receptor agonists [8]: minimal or no effect
duration of antagonist activity against delta opioid receptor agonists ([9]; NTI, b221: against the antinociceptive effect of DSLET): 18 to 24 h
effect on the antinociceptive activity of DAMGO [10]: neither NTI nor 5'-NTII, at the dosages and injection protocol used, altered the anti-nociceptive activity of DAMGO
maximum dose with selective antagonism at delta opioid receptors without detection of antinociceptive activity ([11]; i.c.v.): 10 pmol/mouse
antinociceptive activity [11]: possesses antinociceptive activity
times more naloxone required to precipitate withdrawal jumping ([14]; pretreated twice with NTI before inducing dependence): 45 times
times more naloxone required to precipitate withdrawal jumping ([14]; single dose of NTI 90 min before or at same time as 100 mg/kg morphine sulfate): about 10 times

COC(=O)/C=C/C(=O)N[C@@H]1CC[C@@]2(O)[C@H]3Cc4ccc(O)c5c4[C@@]2(CCN3CC2CC2)[C@H]1O5 [β-FNA, β-funaltrexamine]
withdrawal signs [15]: induce long-lasting withdrawal signs in monkeys
effect on morphine-induced antinociception [16]: significantly inhibited morphine-induced antinociception
effect on development of morphine tolerance and dependence [17]: inhibit the development of morphine tolerance and dependence in rats
